Source: ChEMBL document CHEMBL1201862, “PubChem BioAssay data set” (2004)
Calls of active or inactive are those of the source.

How the values were obtained:
[1] = target: Lysosomal acid glucosylceramidase (Homo sapiens, UniProt P04062); test: Dose response cell-based high throughput screening assay to identify enhancers of beta-glucosidase activity. [Related pubchem assays: 784 ]; format: functional
[2] = target: Acyl-homoserine lactone acylase PvdQ (Pseudomonas aeruginosa (strain LESB58), UniProt Q9I194); test: P. aeruginosa PvdQ acylase inhibitors, dose response, biochemical, fluorescence, plate reader and imaging, cherry-picks (AID 493231)
[3] = target: Cytochrome P450 3A4 (Homo sapiens, UniProt P08684); settings: Potency;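 also: confirmatory qHTS run detecting inhibitors and substrates of CYP3A4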
[4] = target: Cytochrome P450 2C9 (Homo sapiens, UniProt P11712); settings: Potency
[5] = target: T1, Alkaline phosphatase, tissue-nonspecific isozyme (Homo sapiens, UniProt P05186)
T1 sequence (P05186 whole entry): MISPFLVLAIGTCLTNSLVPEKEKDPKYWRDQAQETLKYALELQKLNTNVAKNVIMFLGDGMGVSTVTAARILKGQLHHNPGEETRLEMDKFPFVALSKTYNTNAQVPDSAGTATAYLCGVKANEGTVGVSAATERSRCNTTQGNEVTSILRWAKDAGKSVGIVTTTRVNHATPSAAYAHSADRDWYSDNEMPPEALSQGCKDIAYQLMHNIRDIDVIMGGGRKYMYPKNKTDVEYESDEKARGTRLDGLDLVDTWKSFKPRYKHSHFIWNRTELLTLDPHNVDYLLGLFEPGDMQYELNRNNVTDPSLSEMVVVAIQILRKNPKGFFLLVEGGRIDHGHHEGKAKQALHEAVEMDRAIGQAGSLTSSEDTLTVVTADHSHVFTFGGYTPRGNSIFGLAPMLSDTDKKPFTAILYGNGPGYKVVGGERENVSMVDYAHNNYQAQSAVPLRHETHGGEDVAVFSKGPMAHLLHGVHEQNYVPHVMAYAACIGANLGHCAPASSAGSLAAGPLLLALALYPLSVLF

[6] = target: T2, Neuropeptide Y receptor type 1 (Homo sapiens, UniProt P25929); test: Fluorescence-based dose response cell-based high-throughput screening assay for agonists of NPY-Y1. [Related pubchem assays: 1697 (Screening assay (NPY-Y1 agonists).), 1359 (Screening assay (NPY-Y2 potentiators or agonists).), 1304 (Screening assay (NPY-Y1 potentiators or agonists).), 1704 (Screening assay (CNGC inhibitors).), 1791 (Summary AID.)]; format: functional
T2 sequence (P25929 whole entry): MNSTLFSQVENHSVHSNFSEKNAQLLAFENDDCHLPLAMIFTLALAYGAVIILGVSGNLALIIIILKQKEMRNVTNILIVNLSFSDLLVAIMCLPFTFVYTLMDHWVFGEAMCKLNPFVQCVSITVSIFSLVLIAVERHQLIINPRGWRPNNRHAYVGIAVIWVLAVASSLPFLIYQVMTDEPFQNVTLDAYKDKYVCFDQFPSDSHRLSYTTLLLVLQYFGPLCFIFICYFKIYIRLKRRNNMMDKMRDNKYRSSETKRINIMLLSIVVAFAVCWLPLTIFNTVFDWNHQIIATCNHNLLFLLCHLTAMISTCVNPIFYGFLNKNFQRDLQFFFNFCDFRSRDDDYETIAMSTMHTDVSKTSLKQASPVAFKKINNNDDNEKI

[7] = tested on: HEK293; test: Fluorescence-based counterscreen for potentiators or agonists of NPY-Y1: cell-based high-throughput dose response assay for inhibitors of cyclic nucleotide gated ion channel (CNGC) activity. In this assay, the parental HEK293 cell line transfected with a cyclic-nucleotide gated ion channel (CNGC)-based cAMP sensor is used to measure inhibition of isoproterenol-induced CNGC …; format: functional; settings: Homo sapiens
[8] = target: T3, Neuropeptide Y receptor type 2 (Homo sapiens, UniProt P49146); test: Fluorescence-based counterscreen for agonists of NPY-Y1: cell-based high-throughput dose response assay for agonists of NPY-Y2.; format: functional
T3 sequence (P49146 whole entry): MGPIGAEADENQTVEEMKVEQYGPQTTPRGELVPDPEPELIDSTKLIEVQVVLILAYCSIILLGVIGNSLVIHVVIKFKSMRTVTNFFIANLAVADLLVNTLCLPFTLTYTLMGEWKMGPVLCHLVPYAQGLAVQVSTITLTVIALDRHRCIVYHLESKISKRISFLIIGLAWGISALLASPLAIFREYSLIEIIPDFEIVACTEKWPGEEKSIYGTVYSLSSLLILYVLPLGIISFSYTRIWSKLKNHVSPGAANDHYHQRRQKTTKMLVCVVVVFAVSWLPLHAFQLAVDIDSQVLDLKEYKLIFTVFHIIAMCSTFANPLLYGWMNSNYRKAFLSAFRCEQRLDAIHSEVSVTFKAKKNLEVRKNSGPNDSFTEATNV

[9] = Luminescence-based cell-based high throughput dose response assay to identify activators of the DAF-12 from the parasite S. stercoralis (ssDAF-12).; format: functional
[10] = target: T4, Insulin-degrading enzyme (Homo sapiens, UniProt P14735); test: Dose Response: Fluorescence polarization-based cell-based high throughput dose response assay for inhibitors of insulin-degrading enzyme (IDE). [Related pubchem assays: 434962 (Primary screen (IDE inhibitors in singlicate)), 449730 (Counterscreen (Cytotoxicity in triplicate)), 435028 (Confirmation (IDE inhibitors in triplicate)), 434984 (Summary …; format: functional
T4 sequence (P14735 whole entry): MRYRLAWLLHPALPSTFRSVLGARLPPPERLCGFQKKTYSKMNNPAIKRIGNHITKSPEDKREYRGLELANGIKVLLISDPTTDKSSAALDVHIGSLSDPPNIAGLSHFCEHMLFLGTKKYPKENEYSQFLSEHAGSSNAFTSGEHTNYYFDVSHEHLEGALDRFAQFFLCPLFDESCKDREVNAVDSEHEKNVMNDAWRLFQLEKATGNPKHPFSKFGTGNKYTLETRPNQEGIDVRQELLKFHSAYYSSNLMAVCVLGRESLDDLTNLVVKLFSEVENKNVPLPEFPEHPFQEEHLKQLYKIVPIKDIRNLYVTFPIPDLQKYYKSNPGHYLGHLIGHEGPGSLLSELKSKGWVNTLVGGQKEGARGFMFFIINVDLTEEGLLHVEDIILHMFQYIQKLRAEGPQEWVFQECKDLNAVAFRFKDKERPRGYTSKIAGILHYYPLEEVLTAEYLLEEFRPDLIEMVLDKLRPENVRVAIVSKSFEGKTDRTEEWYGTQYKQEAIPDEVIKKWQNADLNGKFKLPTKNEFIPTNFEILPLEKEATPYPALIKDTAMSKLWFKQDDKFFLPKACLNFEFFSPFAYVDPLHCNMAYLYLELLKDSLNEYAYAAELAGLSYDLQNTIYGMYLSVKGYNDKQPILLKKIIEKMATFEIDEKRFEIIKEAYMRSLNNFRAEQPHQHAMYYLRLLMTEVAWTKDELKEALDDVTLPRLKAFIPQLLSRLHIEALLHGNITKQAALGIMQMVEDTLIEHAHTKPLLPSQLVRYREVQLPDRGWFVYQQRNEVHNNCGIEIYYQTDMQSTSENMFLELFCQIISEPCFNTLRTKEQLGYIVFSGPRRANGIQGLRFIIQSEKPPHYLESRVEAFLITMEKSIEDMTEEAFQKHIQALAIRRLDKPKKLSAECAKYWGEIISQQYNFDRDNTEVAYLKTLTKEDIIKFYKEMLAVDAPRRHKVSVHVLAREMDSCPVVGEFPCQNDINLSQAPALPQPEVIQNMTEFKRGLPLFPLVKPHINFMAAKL

[11] = target: T5, Oxysterols receptor LXR-beta (Homo sapiens, UniProt P55055); test: LXR agonists, Gal4 luciferase reporter, dose response, counter-screen for ssDAF-12 agonist project, cell-based, luminescence, HEK293, S. stercoralis campaign (AID 720737); format: functional; settings: read-out: IC50 (the source's name)
T5 sequence (P55055 whole entry): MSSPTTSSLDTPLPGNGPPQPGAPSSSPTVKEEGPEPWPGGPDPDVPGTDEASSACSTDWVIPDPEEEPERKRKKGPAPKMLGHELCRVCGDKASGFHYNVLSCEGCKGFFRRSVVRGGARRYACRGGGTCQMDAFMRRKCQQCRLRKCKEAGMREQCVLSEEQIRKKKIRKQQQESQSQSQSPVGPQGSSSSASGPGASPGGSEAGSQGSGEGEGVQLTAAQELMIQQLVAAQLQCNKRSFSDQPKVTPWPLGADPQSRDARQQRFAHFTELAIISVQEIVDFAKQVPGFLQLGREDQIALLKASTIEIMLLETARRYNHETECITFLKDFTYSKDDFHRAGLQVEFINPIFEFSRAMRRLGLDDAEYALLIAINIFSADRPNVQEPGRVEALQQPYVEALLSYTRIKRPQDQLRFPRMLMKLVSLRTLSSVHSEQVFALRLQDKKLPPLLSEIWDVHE

[12] = enhancers of respiration in Yfh1-depleted yeast, dose response, Friedreich's ataxia, plus single-dose screen (AID 1465); format: functional;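 also: yeast depleted of Yfh1p frataxin homolog grown on glycerol needing respiration; WST-1 tetrazolium dye reduction as measure of cellular dehydrogenase metabolic activity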
[13] = Counterscreen for IDE inhibitors: Luminescence-based cell-based high throughput dose response assay to identify compounds that are cytotoxic to HEK cells. [Related pubchem assays: 434962 (Primary screen (IDE inhibitors in singlicate)), 449730 (Counterscreen (Cytotoxicity in triplicate)), 435028 (Confirmation (IDE inhibitors in triplicate)) …; format: functional; settings: HEK293
[14] = target: Protein Rev (Human immunodeficiency virus type 1 group M subtype B (isolate WMJ22)(HIV-1), UniProt P05866); test: HIV-1 Rev-RRE RNA binding disruptors, dose response, biochemical, protein-RNA interaction (AID 842); parameters: species or system Human immunodeficiency virus 1
[15] = target: Procathepsin L (Homo sapiens, UniProt P07711)
[16] = target: Aspartyl aminopeptidase (Plasmodium falciparum 3D7, UniProt Q8I2J3)
[17] = HEp-2 cell cytotoxicity, dose response, cytotoxicity control for RSV inhibitor project, HTS (AID 2410); format: functional; settings: human respiratory syncytial virus
[18] = tested on: HEK293; test: PMA/Ionomycin-induced IL-8 production in HEK293- NF-kB-Luc stable cells. [Related pubchem assays: 1299, 1295, 1375, 1287, 1281, 1293, 1291, 1289, 1280, 465, 1364, 1282, 1372, 1365, 1367, 1366, 1266, 1269, 1373, 1292, 1290, 1302, 1371, 1283, 1271, 1294, 1374, 1368, 1369 ]; format: functional, cell-based; settings: Homo sapiens
[19] = target: Luciferin 4-monooxygenase (Photinus pyralis, UniProt P08659); test: In vitro luciferase assay using purified luciferase. [Related pubchem assays: 1299, 1270, 1295, 1375, 1287, 1281, 1293, 1291, 1289, 1280, 465, 1364, 1282, 1372, 1365, 1370, 1367, 1366, 1266, 1373, 1292, 1290, 1302, 1371, 1283, 1271, 1294, 1374, 1368, 1369 ]
[20] = cells
[21] = tested on: HEK293; test: TNF Induced NF-kB Luciferase in 293-NF-kB-Luc Stable Cells. [Related pubchem assays: 1266, 1299, 1269, 1373, 1292, 1290, 1302, 1371, 1283, 1270, 1295, 1271, 1375, 1294, 1374, 1281, 1293, 1291, 1289, 1280, 465, 1368, 1364, 1282, 1372, 1365, 1369, 1370, 1367, 1366 ]; format: functional, cell-based; settings: Homo sapiens
[22] = tested on: HEK293; test: PMA/Ionomycin induced NF-kB luciferase assay in 293- NF-kB-Luc stable cells. [Related pubchem assays: 1299, 1270, 1295, 1375, 1287, 1281, 1293, 1291, 1289, 1280, 465, 1364, 1282, 1372, 1365, 1370, 1367, 1366, 1269, 1373, 1292, 1290, 1302, 1371, 1283, 1271, 1294, 1374, 1368, 1369 ]; format: functional, cell-based; settings: Homo sapiens
[23] = tested on: HEK293; test: Cytotoxicity assay in HEK293 cells. [Related pubchem assays (depositor defined):AID1266, AID1269, AID1270, AID1271, AID1280, AID1281, AID1282, AID1283, AID1287, AID1289, AID1290, AID1291, AID1292, AID1293, AID1294, AID1295, AID1299, AID1302, AID1364, AID1365, AID1366, AID1367, AID1369, AID1370, AID1371, AID1372, AID1373, AID1374, AID1375, AID1384 …; format: functional, cell-based; settings: Homo sapiens
[24] = tested on: Vero; test: cells; format: functional; settings: Chlorocebus sabaeus
[25] = tested on: Vero; test: cells; format: functional, cell-based; settings: Chlorocebus sabaeus

Sequence of Aspartyl aminopeptidase (Q8I2J3 whole entry): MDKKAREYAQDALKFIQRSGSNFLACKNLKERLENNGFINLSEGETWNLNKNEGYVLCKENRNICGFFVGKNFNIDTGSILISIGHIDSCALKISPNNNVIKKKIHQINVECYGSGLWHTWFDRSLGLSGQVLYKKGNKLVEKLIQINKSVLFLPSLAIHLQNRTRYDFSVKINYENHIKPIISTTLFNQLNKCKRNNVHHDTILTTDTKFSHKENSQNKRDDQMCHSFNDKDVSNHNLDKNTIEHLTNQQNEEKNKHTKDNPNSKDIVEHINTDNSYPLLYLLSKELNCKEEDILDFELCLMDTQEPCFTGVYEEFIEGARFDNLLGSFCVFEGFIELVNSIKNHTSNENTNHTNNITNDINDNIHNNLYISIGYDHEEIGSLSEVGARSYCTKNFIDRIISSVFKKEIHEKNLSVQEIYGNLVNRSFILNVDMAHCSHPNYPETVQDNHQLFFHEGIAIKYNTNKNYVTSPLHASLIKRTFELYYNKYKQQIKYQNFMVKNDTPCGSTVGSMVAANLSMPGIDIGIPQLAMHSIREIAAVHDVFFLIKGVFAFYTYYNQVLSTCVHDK
Sequence of Acyl-homoserine lactone acylase PvdQ (Q9I194 24-193 limits assumed): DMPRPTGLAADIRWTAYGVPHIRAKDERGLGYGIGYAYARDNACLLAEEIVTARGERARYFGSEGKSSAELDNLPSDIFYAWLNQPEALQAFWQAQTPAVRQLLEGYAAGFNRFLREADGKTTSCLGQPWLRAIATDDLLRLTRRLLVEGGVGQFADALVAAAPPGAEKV
Sequence of Acyl-homoserine lactone acylase PvdQ (Q9I194 217-762 limits assumed): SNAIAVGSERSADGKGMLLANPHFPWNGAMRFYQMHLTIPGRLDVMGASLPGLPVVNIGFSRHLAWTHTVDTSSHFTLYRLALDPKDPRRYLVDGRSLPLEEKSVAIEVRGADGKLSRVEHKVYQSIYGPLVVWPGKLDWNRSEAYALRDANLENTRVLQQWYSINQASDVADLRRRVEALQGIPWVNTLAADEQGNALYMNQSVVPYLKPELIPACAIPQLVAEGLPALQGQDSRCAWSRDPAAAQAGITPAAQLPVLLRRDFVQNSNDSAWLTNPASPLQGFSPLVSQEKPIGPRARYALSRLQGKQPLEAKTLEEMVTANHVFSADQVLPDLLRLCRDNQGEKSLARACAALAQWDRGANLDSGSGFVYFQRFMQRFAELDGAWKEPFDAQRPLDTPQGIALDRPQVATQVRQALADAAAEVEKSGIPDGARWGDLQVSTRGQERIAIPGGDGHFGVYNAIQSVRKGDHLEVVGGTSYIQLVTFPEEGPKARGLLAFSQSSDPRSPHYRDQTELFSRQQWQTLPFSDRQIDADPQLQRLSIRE
Sequence of Protein Rev (P05866 whole entry): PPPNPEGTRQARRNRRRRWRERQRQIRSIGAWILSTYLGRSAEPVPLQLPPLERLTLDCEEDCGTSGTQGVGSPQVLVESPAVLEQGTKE
Sequence of Cytochrome P450 3A4 (P08684 whole entry): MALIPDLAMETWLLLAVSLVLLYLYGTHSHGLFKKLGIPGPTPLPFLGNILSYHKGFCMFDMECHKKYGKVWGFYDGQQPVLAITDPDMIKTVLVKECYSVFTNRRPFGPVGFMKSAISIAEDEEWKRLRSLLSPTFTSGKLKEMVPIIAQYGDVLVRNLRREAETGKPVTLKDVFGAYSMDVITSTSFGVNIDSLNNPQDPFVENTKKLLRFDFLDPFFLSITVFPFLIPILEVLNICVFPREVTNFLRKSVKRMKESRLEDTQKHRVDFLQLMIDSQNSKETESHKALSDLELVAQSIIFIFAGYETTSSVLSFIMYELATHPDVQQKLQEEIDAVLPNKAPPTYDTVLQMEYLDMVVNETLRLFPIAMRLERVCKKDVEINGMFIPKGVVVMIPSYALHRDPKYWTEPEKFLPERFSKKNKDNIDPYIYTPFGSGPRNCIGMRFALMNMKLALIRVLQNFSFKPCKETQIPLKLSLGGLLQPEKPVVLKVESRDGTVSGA
Sequence of Lysosomal acid glucosylceramidase (P04062 whole entry): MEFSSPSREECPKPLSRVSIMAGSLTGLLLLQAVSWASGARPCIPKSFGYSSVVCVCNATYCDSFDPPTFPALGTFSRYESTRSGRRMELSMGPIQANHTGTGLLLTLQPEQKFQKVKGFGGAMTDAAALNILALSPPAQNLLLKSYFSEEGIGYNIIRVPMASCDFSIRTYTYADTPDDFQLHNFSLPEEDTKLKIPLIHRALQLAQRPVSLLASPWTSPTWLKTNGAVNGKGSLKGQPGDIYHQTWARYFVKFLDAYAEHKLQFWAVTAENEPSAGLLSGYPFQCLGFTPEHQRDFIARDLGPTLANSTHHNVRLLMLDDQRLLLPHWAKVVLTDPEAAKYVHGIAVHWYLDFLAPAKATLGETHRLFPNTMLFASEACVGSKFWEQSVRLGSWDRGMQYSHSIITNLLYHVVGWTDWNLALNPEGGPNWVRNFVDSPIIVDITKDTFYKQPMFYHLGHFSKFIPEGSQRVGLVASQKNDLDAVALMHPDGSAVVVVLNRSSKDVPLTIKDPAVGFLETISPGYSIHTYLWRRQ
Sequence of Procathepsin L (P07711 whole entry): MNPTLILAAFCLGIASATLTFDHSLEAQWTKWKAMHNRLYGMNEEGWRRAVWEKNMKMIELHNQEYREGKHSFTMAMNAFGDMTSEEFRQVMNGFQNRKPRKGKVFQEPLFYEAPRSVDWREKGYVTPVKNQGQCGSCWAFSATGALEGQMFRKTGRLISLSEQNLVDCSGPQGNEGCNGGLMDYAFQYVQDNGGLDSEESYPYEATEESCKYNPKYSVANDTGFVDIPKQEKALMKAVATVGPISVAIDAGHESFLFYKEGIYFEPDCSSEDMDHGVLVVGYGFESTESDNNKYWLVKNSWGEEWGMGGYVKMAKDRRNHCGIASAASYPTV
Sequence of Luciferin 4-monooxygenase (P08659 whole entry): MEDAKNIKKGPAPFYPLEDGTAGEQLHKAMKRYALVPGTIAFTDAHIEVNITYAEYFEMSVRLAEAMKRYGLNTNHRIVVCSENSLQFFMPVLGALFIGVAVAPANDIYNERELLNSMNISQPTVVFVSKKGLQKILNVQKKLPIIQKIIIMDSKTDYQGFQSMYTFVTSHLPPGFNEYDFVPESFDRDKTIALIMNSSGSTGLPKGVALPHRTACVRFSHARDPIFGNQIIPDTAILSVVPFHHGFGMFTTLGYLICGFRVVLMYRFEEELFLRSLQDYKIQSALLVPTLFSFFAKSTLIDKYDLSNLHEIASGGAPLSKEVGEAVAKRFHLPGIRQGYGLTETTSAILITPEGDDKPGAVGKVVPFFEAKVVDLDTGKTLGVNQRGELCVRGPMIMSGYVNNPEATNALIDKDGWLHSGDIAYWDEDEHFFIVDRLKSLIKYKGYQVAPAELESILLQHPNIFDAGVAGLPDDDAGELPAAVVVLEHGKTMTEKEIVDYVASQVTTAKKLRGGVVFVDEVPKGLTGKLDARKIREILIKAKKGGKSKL
Sequence of Cytochrome P450 2C9 (P11712 whole entry): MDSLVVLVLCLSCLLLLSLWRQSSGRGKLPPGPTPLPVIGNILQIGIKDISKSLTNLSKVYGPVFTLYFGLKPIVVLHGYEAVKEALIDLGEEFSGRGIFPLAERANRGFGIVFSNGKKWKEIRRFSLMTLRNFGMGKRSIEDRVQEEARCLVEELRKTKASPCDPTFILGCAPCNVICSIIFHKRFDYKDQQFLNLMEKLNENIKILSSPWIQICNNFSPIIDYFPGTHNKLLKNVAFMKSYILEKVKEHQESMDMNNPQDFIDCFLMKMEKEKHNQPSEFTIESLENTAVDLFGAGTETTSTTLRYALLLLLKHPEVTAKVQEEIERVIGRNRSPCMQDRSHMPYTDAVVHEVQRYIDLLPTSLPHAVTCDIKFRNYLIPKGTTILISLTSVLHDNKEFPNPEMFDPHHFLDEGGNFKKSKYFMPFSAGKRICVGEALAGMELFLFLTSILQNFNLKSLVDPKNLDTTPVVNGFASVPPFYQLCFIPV

For `O=C(OCCN1CCCCC1)c1cc2ccccc2o1`, the EC50 [1] was > 10 µM (not active).

For `O=C1C=C(c2ccccc2C(F)(F)F)C[C@@H](c2ccc3c(c2)OCO3)C1`, the AC50 [2] was > 100 µM (inactive).

With `CC1CN2C(CCC(C)C2c2ccc(Br)cc2)C(=O)O1` (stereo not given) the AC50 [3] was 5.01 µM (inconclusive) and the AC50 [4] was 3.98 µM (inconclusive).

In the case of `Cc1ccc(C(=O)NN=C(S)Nc2cccc3ccccc23)s1`, the EC50 [5] is reported as 62.6 µM (not active).

In the case of `Oc1ccccc1Cn1c(-c2ccccc2O)nc2ccccc21`, the EC50 [6] is reported as 15.6 µM (not active), the IC50 [7] is reported as 14.3 µM (not active) and the EC50 [8] is reported as 24.7 µM (not active).

In the case of `N#C/C(=C\c1ccc(N2CCOCC2)o1)C(=O)NCC1CCCO1` (stereo not given), the IC50 [9] is reported as > 67.5 µM (inactive), the IC50 [10] is reported as 25.3 µM (not active) and the EC50 [11] is reported as > 67.5 µM (inactive). For the same molecule, the EC50 [12] was > 100 µM (active) and the IC50 [13] was > 55.7 µM (not active).

In the case of `COc1ccc(CCNC(C)CCc2ccc(OC)cc2)cc1` (stereo not given), the IC50 [14] is reported as > 79.4 µM (not active).

In the case of `O=C(O)c1c[nH]nc1-n1cnnn1`, the IC50 [15] is reported as > 59.6 µM (not active) and the IC50 [16] is reported as 1.27 µM (active).

With `Cc1oc(-c2ccccc2Cl)nc1CSCC(=O)N1CCCC1` the CC50 [17] was 16 µM (active), the EC50 [18] was 11.1 µM (not active) and the EC50 [19] was > 8 µM (not active). For the same molecule, the IC50 [20] was 11 µM (active), the EC50 [21] was > 8 µM (not active) and the EC50 [22] was < 4 µM (active). The EC50 [23] was > 8 µM (inactive), the CC50 [24] was > 25 µM (active) and the IC50 [25] was 2.28 µM (active).
